PubChem BioAssay (NCI)
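Exposure lasted 48 hours, with cells grown in 96-well plates and compounds tested at five concentrations. GI50 marks 50% less growth. TGI denotes the concentration required for complete inhibition of growth.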

Key:
Assay in all cases: inhibition of tumour cell growth, NCI panel, 48 h
HCT-116 colon = system: HCT-116 colon
NCI-H226 lung = system: NCI-H226 lung
SF-539 CNS = system: SF-539 CNS
PC-3 prostate = system: PC-3 prostate
SK-OV-3 ovarian = system: SK-OV-3 ovarian
HOP-92 NSCLC = system: HOP-92 NSCLC
OVCAR-4 ovarian = system: OVCAR-4 ovarian
NCI-H522 lung = system: NCI-H522 lung
LOX IMVI melanoma = system: LOX IMVI melanoma
T-47D breast = system: T-47D breast
SN12C renal = system: SN12C renal
EKVX NSCLC = system: EKVX NSCLC
CCRF-CEM leukemia = system: CCRF-CEM leukemia
OVCAR-8 ovarian = system: OVCAR-8 ovarian
MDA-MB-435 = system: MDA-MB-435
NCI-H23 lung = system: NCI-H23 lung
TK-10 renal = system: TK-10 renal
786-0 renal = system: 786-0 renal
MCF7 breast = system: MCF7 breast
SW-620 colon = system: SW-620 colon
CAKI-1 renal = system: CAKI-1 renal
M14 melanoma = system: M14 melanoma
COLO 205 colon = system: COLO 205 colon
U251 CNS = system: U251 CNS
HL-60(TB) leukemia = system: HL-60(TB) leukemia
OVCAR-3 ovarian = system: OVCAR-3 ovarian
NCI-H460 lung = system: NCI-H460 lung
A498 renal = system: A498 renal
RXF 393 renal = system: RXF 393 renal

`CN1CCN(Cc2ccc(NC(=O)c3cncc(C#Cc4cnc5ccc(OCCCS(C)(=O)=O)nn45)c3)cc2C(F)(F)F)CC1` was tested, and the GI50 (HCT-116 colon) was 67.3 nM, the TGI (HCT-116 colon) was 594 nM and the GI50 (NCI-H226 lung) was 131 nM. It also gave a TGI (NCI-H226 lung) of 1030 nM, a GI50 (SF-539 CNS) of 164 nM and a TGI (SF-539 CNS) of 906 nM. It also gave a GI50 (PC-3 prostate) of 873 nM, a TGI (PC-3 prostate) of 4970 nM and a GI50 (SK-OV-3 ovarian) of 868 nM. The TGI (SK-OV-3 ovarian) was 3470 nM, the GI50 (HOP-92 NSCLC) was 101 nM and the TGI (HOP-92 NSCLC) was 393 nM. The GI50 (OVCAR-4 ovarian) was 547 nM, the TGI (OVCAR-4 ovarian) was 1930 nM and the GI50 (NCI-H522 lung) was 460 nM. For the same compound, the TGI (NCI-H522 lung) was 1280 nM, the GI50 (LOX IMVI melanoma) was 305 nM and the TGI (LOX IMVI melanoma) was 1020 nM. The GI50 (T-47D breast) was 783 nM, the TGI (T-47D breast) was 12200 nM and the GI50 (SN12C renal) was 415 nM. For the same compound, the TGI (SN12C renal) was 2200 nM, the GI50 (EKVX NSCLC) was 1120 nM and the TGI (EKVX NSCLC) was 4280 nM. The GI50 (CCRF-CEM leukemia) was 213 nM, the TGI (CCRF-CEM leukemia) was 22400 nM and the GI50 (OVCAR-8 ovarian) was 1000 nM. It also gave a TGI (OVCAR-8 ovarian) of 4330 nM, a GI50 (MDA-MB-435) of 221 nM and a TGI (MDA-MB-435) of 1000 nM. The GI50 (NCI-H23 lung) was 420 nM, the TGI (NCI-H23 lung) was 1560 nM and the GI50 (TK-10 renal) was 1130 nM. For the same compound, the TGI (TK-10 renal) was 2940 nM, the GI50 (786-0 renal) was 359 nM and the TGI (786-0 renal) was 1170 nM. The GI50 (MCF7 breast) was 213 nM, the TGI (MCF7 breast) was 2830 nM and the GI50 (SW-620 colon) was 193 nM. The TGI (SW-620 colon) was 1050 nM, the GI50 (CAKI-1 renal) was 459 nM and the TGI (CAKI-1 renal) was 2680 nM. For the same compound, the GI50 (M14 melanoma) was 171 nM, the TGI (M14 melanoma) was 701 nM and the GI50 (COLO 205 colon) was 377 nM. For the same compound, the TGI (COLO 205 colon) was 1150 nM, the GI50 (U251 CNS) was 554 nM and the TGI (U251 CNS) was 2610 nM. For the same compound, the GI50 (HL-60(TB) leukemia) was 229 nM, the TGI (HL-60(TB) leukemia) was 802 nM and the GI50 (OVCAR-3 ovarian) was 795 nM. For the same compound, the TGI (OVCAR-3 ovarian) was 3040 nM, the GI50 (NCI-H460 lung) was 311 nM and the TGI (NCI-H460 lung) was 953 nM. The GI50 (A498 renal) was 863 nM, the TGI (A498 renal) was 1620 nM and the GI50 (RXF 393 renal) was 803 nM. The TGI (RXF 393 renal) was 1630 nM.
